Numbers after ± are expanded uncertainties.
Conditions: Liquid, Closed cell (Static) method

Q: Which results are given for `CC(O)CO` (stereo not given) [1,2-propanediol]?
A: vapor or sublimation pressure (350.15 K): 0.84 ± 0.023 kPa; vapor or sublimation pressure (355.15 K): 1.131 ± 0.031 kPa; vapor or sublimation pressure (360.15 K): 1.506 ± 0.037 kPa; vapor or sublimation pressure (365.15 K): 1.987 ± 0.045 kPa; vapor or sublimation pressure (370.15 K): 2.596 ± 0.049 kPa; vapor or sublimation pressure (375.15 K): 3.361 ± 0.031 kPa; vapor or sublimation pressure (380.15 K): 4.316 ± 0.039 kPa; vapor or sublimation pressure (385.15 K): 5.496 ± 0.047 kPa; vapor or sublimation pressure (390.15 K): 6.946 ± 0.051 kPa; vapor or sublimation pressure (395.15 K): 8.715 ± 0.052 kPa; vapor or sublimation pressure (400.15 K): 10.86 ± 0.067 kPa; vapor or sublimation pressure (405.15 K): 13.44 ± 0.074 kPa; vapor or sublimation pressure (410.15 K): 16.53 ± 0.062 kPa; vapor or sublimation pressure (415.15 K): 20.22 ± 0.068 kPa; vapor or sublimation pressure (420.15 K): 24.59 ± 0.082 kPa

— the NIST ThermoML archive (doi:10.1016/j.fluid.2014.09.015)
